Results: publication PMC9867526, “Drug Metabolism of Hepatocyte-like Organoids and Their Applicability in In Vitro Toxicity Testing” (Molecules, 2023)

Columns and labels:
HL-ICOs = assay: Cytotoxicity (CellTiter-Glo ATP viability) in hepatocyte-like intrahepatic cholangiocyte organoids, 48 h exposure; type: cell-based, human
Protocol: The cell suspension was cultured in MatrigelTM (Corning, New York, NY, USA) droplets in expansion medium (EM) until organoids were formed, as previously described. EM consisted of Advanced DMEM/F12 (Life Technologies) supplemented with 1% (v/v) penicillin-streptomycin (Life Technologies), 1% (v/v) GlutaMax (Life Technologies), 10 mM HEPES (4-(2-hydroxyethyl)-1-piperazineethanesulfonic acid, Life Technologies), 2% (v/v) B27 supplement without vitamin A (Invitrogen, Carlsbad, CA, USA), 1% (v/v) N2 supplement (Invitrogen), 10 mM nicotinamide (Sigma-Aldrich, St Louis, MO, USA), 1.25 mM N-acetylcysteine (Sigma-Aldrich), 10% (v/v) R-spondin-1 conditioned medium (the Rspo1-Fc-expressing cell line was a kind gift from Calvin J. Kuo), 10 μM forskolin (Sigma-Aldrich), 5 μM A83-01 (transforming growth factor beta inhibitor; Tocris Bioscience, Bristol, UK), 50 ng/mL EGF (Invitrogen), 25 ng/mL HGF (Peprotech, Rocky Hill, NJ, USA), 0.1 μg/mL FGF10 (Peprotech) and 10 nM recombinant human ([…])-gastrin I (Sigma-Aldrich). Medium was changed twice a week. Passaging occurred every 7-10 days at ratios ranging between 1:2 and 1:4. All cultures were kept in a humidified atmosphere of 95% air and 5% CO2 at 37 °C. Organoids were primed for differentiation with BMP7 (25 ng/mL, Peprotech) through spiking EM 3 days before shifting to hepatic differentiation medium (DM). DM consisted of EM without R-spondin-1, FGF10, and nicotinamide, supplemented with 100 ng/mL FGF19 (Peprotech), 500 nM A83-01 (Tocris Bioscience), 10 μM DAPT (Selleckchem, Munich, Germany), 25 ng/mL BMP-7 (Peprotech), and […] (Sigma-Aldrich). Organoids were kept on DM for up to 12 days. For exposure experiments, differentiation assay medium was prepared to reduce antioxidants in the medium. This assay medium consisted of DMEM GlutaMAX instead of DMEM-F12 medium complemented with the same components as differentiation medium excluding GlutaMAX, B27, and NAC. In 96-well format (cytotoxicity assay), 12,000 cells in 9 μL Matrigel per well were plated at the start of differentiation, and exposure was started at day 10 of differentiation for 48 h. In 24-well format (CYP activity assay), cells were densely plated in a fresh Matrigel droplet (50 μL) upon the start of differentiation, and cells were exposed to the CYP substrate cocktail on day 12 of differentiation. […] Cells plated in 96-well plates were exposed to a concentration range (six concentrations in 2x dilution) of five known hepatotoxic compounds for 48 h (single dose). Acetaminophen (CAS 103-90-2; 30 mM) and valproic acid (CAS 1069-66-5; 10 mM) were directly dissolved in assay medium (previously described for each hepatic cell model). […] For the latter, vehicle control (0.5% (v/v) DMSO) was used in the exposure experiments. All chemicals were obtained from Sigma-Aldrich, unless stated otherwise. […] The viability of exposed cells was determined by cellular ATP levels using the CellTiter-Glo Luminescent Cell Viability Assay (Promega, Madison, WI, USA). The CellTiter Glo reagent was prepared according to the manufacturer's instructions. Briefly, the culture plate was equilibrated at room temperature for 30 min. Medium was removed from the plate, after which phosphate-buffered saline (PBS) and the CellTiter Glo reagent were added to each well in equal volumes. The plate was mixed for 2 min on an orbital shaker and incubated for an additional 10 min at room temperature. Luminescence was measured on the TriStar2 (Berthold Technologies, Bad Wildbad, Germany), and samples were normalized to (vehicle) control.

PHH = assay: Cytotoxicity (CellTiter-Glo ATP viability) in primary human hepatocytes, 48 h exposure; type: cell-based; conditions: Hepatocyte
Protocol: LiverPool cryoplateable hepatocytes (pool of 10 donors, mixed gender; BioIVT, Hicksville, NY, USA) were cultured in a collagen I (Sigma-Aldrich, St Louis, MO, USA) sandwich in INVITROGRO CP medium (BioIVT) complemented with the TORPEDO Antibiotic mix (BioIVT). Seeding density was 49,000 cells/well in a 96-well plate (cytotoxicity assay) or 350,000 cells/well in a 24-well plate (CYP activity assay), according to the manufacturer’s instructions. Exposure of the hepatocytes was started 48 h after seeding. For exposure assays, INVITROGRO HI medium (BioIVT) was used, as recommended. Cells plated in 96-well plates were exposed to a concentration range (six concentrations in 2x dilution) of five known hepatotoxic compounds for 48 h (single dose). Acetaminophen (CAS 103-90-2; 30 mM) and valproic acid (CAS 1069-66-5; 10 mM) were directly dissolved in assay medium (previously described for each hepatic cell model). […] For the latter, vehicle control (0.5% (v/v) DMSO) was used in the exposure experiments. All chemicals were obtained from Sigma-Aldrich, unless stated otherwise. […] The viability of exposed cells was determined by cellular ATP levels using the CellTiter-Glo Luminescent Cell Viability Assay (Promega, Madison, WI, USA). The CellTiter Glo reagent was prepared according to the manufacturer’s instructions. Briefly, the culture plate was equilibrated at room temperature for 30 min. Medium was removed from the plate, after which phosphate-buffered saline (PBS) and the CellTiter Glo reagent were added to each well in equal volumes. The plate was mixed for 2 min on an orbital shaker and incubated for an additional 10 min at room temperature. Luminescence was measured on the TriStar2 (Berthold Technologies, Bad Wildbad, Germany), and samples were normalized to (vehicle) control.

HepaRG = assay: Cytotoxicity (CellTiter-Glo ATP viability) in HepaRG cells, 48 h exposure; type: cell-based; conditions: Homo sapiens
Protocol: Undifferentiated HepaRG cells were purchased from Biopredic International (Saint Grégoire, France). Cells were cultured (passage number between p18 and p28) in T75 flasks in culture medium consisting of William’s E medium (without phenol red; Thermo Fisher Scientific, Waltham, MA, USA) supplemented with 1% (v/v) penicillin-streptomycin (Thermo Fisher Scientific), 10% (v/v) fetal bovine serum (FBS; Thermo Fisher Scientific), 50 µM hydrocortisone 21-hemisuccinate (Sigma-Aldrich, St Louis, MO, USA), 2 mM GlutaMax (Thermo Fisher Scientific) and 5 µg/mL insulin (Sigma-Aldrich). For differentiation, cells were cultured for 7–10 days and upon confluence, the monolayer was switched to differentiation medium (culture medium supplemented with 1% (v/v) DMSO). After differentiation, cells were trypsinized using TrypLE (Thermo Fisher Scientific) and seeded at a density of 65,000 cells/well in a 96-well plate (cytotoxicity assay) or 130,000 cells/well in a 24-well plate (CYP activity assay). Cells were allowed to attach for 24 to 48 h. Before exposure, cells were washed with assay medium (culture medium without FBS), after which exposure was started. Cells plated in 96-well plates were exposed to a concentration range (six concentrations in 2x dilution) of five known hepatotoxic compounds for 48 h (single dose). Acetaminophen (CAS 103-90-2; 30 mM) and valproic acid (CAS 1069-66-5; 10 mM) were directly dissolved in assay medium (previously described for each hepatic cell model). […] For the latter, vehicle control (0.5% (v/v) DMSO) was used in the exposure experiments. All chemicals were obtained from Sigma-Aldrich, unless stated otherwise. […] The viability of exposed cells was determined by cellular ATP levels using the CellTiter-Glo Luminescent Cell Viability Assay (Promega, Madison, WI, USA). The CellTiter Glo reagent was prepared according to the manufacturer’s instructions. Briefly, the culture plate was equilibrated at room temperature for 30 min. Medium was removed from the plate, after which phosphate-buffered saline (PBS) and the CellTiter Glo reagent were added to each well in equal volumes. The plate was mixed for 2 min on an orbital shaker and incubated for an additional 10 min at room temperature. Luminescence was measured on the TriStar2 (Berthold Technologies, Bad Wildbad, Germany), and samples were normalized to (vehicle) control.

[1] = HL-ICOs, range over the four ICO donors, 48 h
[2] = Homo sapiens, 48 h, HL-ICOs, range over the four ICO donors
[3] = Homo sapiens, HL-ICOs differentiation day 12, ICO donor in first HL-ICO column, 48 h single dose, cell viability (ATP)
[4] = Homo sapiens, HL-ICOs differentiation day 12, ICO donor in fourth HL-ICO column, 48 h single dose, cell viability (ATP)
[5] = Homo sapiens, HL-ICOs differentiation day 12, ICO donor in second HL-ICO column, 48 h single dose, cell viability (ATP)
[6] = Homo sapiens, HL-ICOs differentiation day 12, ICO donor in third HL-ICO column, 48 h single dose, cell viability (ATP)
[7] = PHH (pool of 10 donors, collagen I sandwich), 48 h single dose, cell viability (ATP)
[8] = 48 h single dose, median of three independent experiments, minimum and maximum EC50 within brackets
[9] = range of three independent experiments

Question: For `Cc1c(C)c2c(c(C)c1O)CCC(C)(COc1ccc(CC3SC(=O)NC3=O)cc1)O2` (stereo not shown) [Troglitazone], which EC50 (HL-ICOs; [1]) is on record?
Answer: 23.1 to 90.8 µM

Question: And the EC50 (HL-ICOs; [2])?
Answer: 23.1 to 90.8 µM

Question: What about the EC50 (HL-ICOs; [3]) of the same compound?
Answer: 42.8 µM

Question: What about the EC50 (HL-ICOs; [4]) of the same compound?
Answer: 24.4 µM

Question: What about the EC50 (HL-ICOs; [5]) of the same compound?
Answer: 90.8 µM

Question: And the EC50 (HL-ICOs; [6])?
Answer: 23.1 µM

Question: And the EC50 (PHH; [7])?
Answer: 57.1 µM

Question: And the EC50 (HepaRG; [8])?
Answer: 45.1 µM

Question: And the EC50 (HepaRG; [9])?
Answer: 14.9 to 45.2 µM

Question: `O=C(O)Cc1ccccc1Nc1c(Cl)cccc1Cl` [Diclofenac] was tested. Which EC50 (HL-ICOs; Homo sapiens, 48 h, HL-ICOs, the other three ICO donors, higher than highest tested concentration) did it give?
Answer: > 500 µM

Question: What about the EC50 (HL-ICOs; [3]) of the same compound?
Answer: > 500 µM

Question: What about the EC50 (HL-ICOs; [5]) of the same compound?
Answer: > 500 µM

Question: And the EC50 (HL-ICOs; [6])?
Answer: > 500 µM

Question: What about the EC50 (PHH; [7]) of the same compound?
Answer: 421 µM

Question: And the EC50 (HepaRG; [8])?
Answer: 352 µM

Question: What about the EC50 (HepaRG; [9]) of the same compound?
Answer: 272 to 435 µM

Question: How did the EC50 (HL-ICOs; [1]) turn out when `CC(=O)Nc1ccc(O)cc1` [Acetaminophen] was run?
Answer: 24000 to 24900 µM

Question: And the EC50 (HL-ICOs; [2])?
Answer: 24000 to 26800 µM

Question: What about the EC50 (HL-ICOs; [3]) of the same compound?
Answer: 24900 µM

Question: What about the EC50 (HL-ICOs; [4]) of the same compound?
Answer: 24000 µM

Question: What about the EC50 (HL-ICOs; [5]) of the same compound?
Answer: 24600 µM

Question: And the EC50 (HL-ICOs; [6])?
Answer: 26800 µM

Question: What about the EC50 (PHH; PHH) of the same compound?
Answer: 4190 µM

Question: And the EC50 (PHH; [7])?
Answer: 4190 µM

Question: What about the EC50 (HepaRG; [8]) of the same compound?
Answer: 4040 µM

Question: And the EC50 (HepaRG; [9])?
Answer: 3460 to 6040 µM

Question: With `C1CCC(C(CC2CCCCN2)C2CCCCC2)CC1` (stereo not shown) [Perhexiline] as the compound, how does the cytotoxicity (HL-ICOs; HL-ICOs, three ICO donors, up to 31.5 µM, 48 h) read?
Answer: no cytotoxicity

Question: What about the EC50 (HL-ICOs; [3]) of the same compound?
Answer: > 31.5 µM

Question: What about the EC50 (HL-ICOs; [4]) of the same compound?
Answer: > 31.5 µM

Question: And the EC50 (HL-ICOs; [5])?
Answer: 9.68 µM

Question: And the EC50 (HL-ICOs; [6])?
Answer: > 31.5 µM

Question: What about the EC50 (PHH; [7]) of the same compound?
Answer: 8.07 µM

Question: And the EC50 (HepaRG; [8])?
Answer: 26 µM

Question: And the EC50 (HepaRG; [9])?
Answer: 10.5 to 26.4 µM

Question: For `CCCC(CCC)C(=O)O` [Valproic Acid], which EC50 (HL-ICOs; [2]) is on record?
Answer: > 10000 µM

Question: And the EC50 (HL-ICOs; [3])?
Answer: > 10000 µM

Question: What about the EC50 (HL-ICOs; [4]) of the same compound?
Answer: > 10000 µM

Question: And the EC50 (HL-ICOs; [5])?
Answer: > 10000 µM

Question: And the EC50 (HL-ICOs; [6])?
Answer: > 10000 µM

Question: What about the EC50 (PHH; PHH) of the same compound?
Answer: 9880 µM

Question: And the EC50 (PHH; [7])?
Answer: 9880 µM

Question: What about the EC50 (HepaRG; [8]) of the same compound?
Answer: 4580 µM

Question: What about the EC50 (HepaRG; [9]) of the same compound?
Answer: 4170 to 6070 µM
